Measured values as given in patent publication US7820706B2, “Multiple dose aromatase inhibitor for treating infertility” (Ares Trading S.A., priority 2001, dated 2010).
Counter-ions that a name gives are not always drawn. Like-named read-outs stand apart in the source and are kept apart here.

Tests used:
[1] = system: postmenopausal breast cancer patients; conditions: lethargy, rashes, nausea and fever; cited from earlier work
rats = conditions: rat, in vivo; cited from earlier work
[2] = system: patients who failed to ovulate or ovulated with endometrial thickness <5 mm in response to CC; experiment: Example 1: letrozole for ovulation induction after CC failure; type: in vivo, human
Source text: HCG 10,000 IU was given to all except one patient to trigger ovulation. Ten patients completed 12 cycles (one patient completed three cycles).

mice = conditions: mouse, in vivo; cited from earlier work
aromatase [3] = target: T1, aromatase (Rattus norvegicus, UniProt P22443); conditions: given orally; cited from earlier work
T1 sequence (P22443 1-508): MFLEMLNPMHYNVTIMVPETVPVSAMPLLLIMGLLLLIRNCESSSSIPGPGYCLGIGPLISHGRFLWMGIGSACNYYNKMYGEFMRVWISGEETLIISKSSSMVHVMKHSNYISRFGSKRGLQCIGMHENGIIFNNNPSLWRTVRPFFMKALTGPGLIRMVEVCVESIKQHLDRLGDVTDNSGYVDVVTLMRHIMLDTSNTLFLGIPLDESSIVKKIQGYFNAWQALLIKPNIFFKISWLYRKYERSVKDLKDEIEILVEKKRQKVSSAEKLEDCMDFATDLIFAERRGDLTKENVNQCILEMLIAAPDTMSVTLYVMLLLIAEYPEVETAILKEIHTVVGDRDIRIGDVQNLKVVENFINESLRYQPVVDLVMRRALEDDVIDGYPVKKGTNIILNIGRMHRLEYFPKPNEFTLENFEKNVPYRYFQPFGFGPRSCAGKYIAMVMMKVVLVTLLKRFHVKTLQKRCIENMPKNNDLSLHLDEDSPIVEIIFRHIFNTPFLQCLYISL

mature female rats = conditions: cited from earlier work
[4] = system: ovulatory women with unexplained infertility and anovulatory women with PCOS; conditions: cited from earlier work
[5] = in vivo; cited from earlier work
[6] = system: women with PCOS; ovulatory women; conditions: cited from earlier work
[7] = oral, healthy postmenopausal women; cited from earlier work
[8] = system: patients who failed to ovulate or ovulated with endometrial thickness <5 mm in response to CC
Procedure: HCG 10,000 IU was given to trigger ovulation. CC was given in a dose of 50-100 mg on days 3-7 or 5-9.

[9] = system: patients with PCOS with inadequate response to CC; conditions: cited from earlier work
[10] = system: endometrium of normal women; conditions: morphometric analysis; cited from earlier work
anovulatory women = conditions: cited from earlier work
aromatase [11] = target: T2, aromatase (Homo sapiens, UniProt P11511); conditions: cited from earlier work
T2 sequence (P11511 1-503): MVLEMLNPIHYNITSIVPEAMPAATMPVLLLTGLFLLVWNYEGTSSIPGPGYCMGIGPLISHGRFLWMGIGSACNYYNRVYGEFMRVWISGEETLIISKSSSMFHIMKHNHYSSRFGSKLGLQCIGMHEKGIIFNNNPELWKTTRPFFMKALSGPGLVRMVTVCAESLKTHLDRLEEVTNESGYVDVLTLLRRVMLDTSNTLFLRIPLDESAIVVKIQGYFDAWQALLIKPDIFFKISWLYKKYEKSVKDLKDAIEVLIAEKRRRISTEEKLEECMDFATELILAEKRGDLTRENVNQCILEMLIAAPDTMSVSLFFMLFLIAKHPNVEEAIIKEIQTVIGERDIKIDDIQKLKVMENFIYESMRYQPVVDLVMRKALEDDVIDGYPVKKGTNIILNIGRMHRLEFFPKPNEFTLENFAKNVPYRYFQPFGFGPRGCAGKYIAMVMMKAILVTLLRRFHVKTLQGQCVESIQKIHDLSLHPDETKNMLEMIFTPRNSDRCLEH

CCC1(c2ccc(N)cc2)CCC(=O)NC1=O (centres unmarked) [aminoglutethimide]
patients stopping treatment because of side effects [1]: 8-15%

N#Cc1ccc(C(c2ccc(C#N)cc2)n2cncn2)cc1 [letrozole]
lethal dose (rats): approximately 2000 mg/kg | pregnancy, patients ([2]; 4 out of 10 patients): 40% | ovulation, cycles ([2]; 9 of 12 cycles, 2.5 to 5 mg/day): 75% | Endometrial Thickness ([2]; mean): 0.8 Cm. | Estradiol on day of HCG admin. ([2]; mean): 1036 pmol | Endometrial Thickness ([2]; median): 0.8 Cm. | Estradiol on day of HCG admin. ([2]; median): 988 pmol | Endometrial Thickness ([2]; range): 0.6-0.9 Cm. | Follicles >1.5 Cm On day of HCG admin. ([2]; range): 1-3 | lethal dose (mice): approximately 2000 mg/kg | ED50 in vivo (aromatase [3]): 1 to 3 µg/kg | FSH and LH (mature female rats): increased FSH and LH | increase in ovarian weight (mature female rats): ~30% | FSH dose required for adequate ovarian super ovulation ([4]; letrozole in conjunction with FSH): significantly lower FSH dose | ovarian response to FSH stimulation ([4]; low responders during ovarian stimulation): improvement in ovarian response to FSH stimulation | doses well tolerated [5]: up to 30 mg | pregnancy, patients ([6]; PCOS group, 3 patients): 25% | ovulation, cycles ([6]; PCOS group, 9 of 12 cycles): 75% | pregnancy, patients ([6]; ovulatory group, one patient): 10% | mean endometrial thickness ([6]; ovulatory group): 0.8 cm | mean number of mature follicles ([6]; ovulatory group): 2.3 | half-life [7]: approximately 45 hours | pregnancy, patients ([8]; 5 out of 15 patients): 33% | ovulation, cycles ([8]; 13 of 17 letrozole cycles): 77% | Endometrial Thickness ([8]; mean): 0.8 Cm. | Estradiol per mature follicle ([8]; mean): 392 pmol/L | Number of Days from last letrozole tablet to HCG day ([8]; mean): 6.7 | Endometrial Thickness ([8]; median): 0.8 Cm. | Estradiol per mature follicle ([8]; median): 289 pmol/L | Number of Days from last letrozole tablet to HCG day ([8]; median): 7 | Endometrial Thickness ([8]; range): 0.6-1.1 Cm. | Estradiol per mature follicle ([8]; range): 107 to 837 pmol/L | Number of Days from last letrozole tablet to HCG day ([8]; range): 2-9 | ovulation, letrozole treated cycles ([9]; 7 of the 10 cycles, PCOS): 70% | mean number of mature follicles ([9]; 7 ovulatory cycles, mean): 2.6 | number of mature follicles, range ([9]; 7 ovulatory cycles, range): 1 to 4 follicles | mean estradiol per follicle ([9]; mean): 378 pmol/L | chemical pregnancy ([9]; of 10 PCOS patients): one | clinical pregnancy ([9]; of 10 PCOS patients): 2 patients

CCN(CC)CCOc1ccc(C(=C(Cl)c2ccccc2)c2ccccc2)cc1 [CC, clomiphene citrate]
effect on the endometrium (glandular density, vacuolated cells) [10]: deleterious effect on the endometrium | anovulatory women resistant to CC who fail to ovulate (anovulatory women; doses up to 150 mg daily): 20% to 25% | women who do not ovulate with CC (anovulatory women; in vivo): 20 to 25% | Day of hCG administration ([8]; mean): 12.6 | Endometrial Thickness ([8]; mean): 0.5 Cm. | Estradiol on day of hCG administration ([8]; mean): 2145 pmol/L | Estradiol per mature follicle ([8]; mean): 1278 pmol/L | Follicles >1.5 Cm on day of hCG administration ([8]; mean): 1.9 | LH on day of hCG administration ([8]; mean): 16 IU/L | Number of Days from last letrozole tablet to HCG day ([8]; mean): 4.4 | Day of hCG administration ([8]; median): 12 | Endometrial Thickness ([8]; median): 0.4 Cm. | Estradiol on day of hCG administration ([8]; median): 1668 pmol/L | Estradiol per mature follicle ([8]; median): 1486 pmol/L | Follicles >1.5 Cm on day of hCG administration ([8]; median): 2 | LH on day of hCG administration ([8]; median): 8 IU/L | Number of Days from last letrozole tablet to HCG day ([8]; median): 4 | Day of hCG administration ([8]; range): 11-16 | Endometrial Thickness ([8]; range): 0.4-0.8 Cm. | Estradiol on day of hCG administration ([8]; range): 362 to 5210 pmol/L | Estradiol per mature follicle ([8]; range): 177 to 2404 pmol/L | Follicles >1.5 Cm on day of hCG administration ([8]; range): 1-5 | LH on day of hCG administration ([8]; range): 3-66 IU/L | Number of Days from last letrozole tablet to HCG day ([8]; range): 2-7

CC(C)(C#N)c1cc(Cn2cncn2)cc(C(C)(C)C#N)c1 [anastrozole]
in vivo inhibition of aromatase (aromatase [11]): 97%
